Results from US9113629B2, “4-amino-6-(4-substituted-phenyl)-picolinates and 6-amino-2-(4-substituted-phenyl)-pyrimidine-4-carboxylates and their use as herbicides” (DOW AGROSCIENCES LLC, priority 2013, dated 2015).
Where two headings read alike, the source gives them in different places.

Experiments:
[1] = test system: Key Broadleaf Weed and Crop Species; experiment: Post-emergent Test II herbicidal activity (Table 5); format: in vivo; details: post-emergence, 336 h, post-emergent, 14 days after application; for pest or weed control at 70 g/ha: 70 g ai/ha; for pest or weed control at 140 g/ha: 140 g ai/ha
Method in brief: (§1)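 Foliar application at 187 L/ha to greenhouse-grown seedlings (first or second true leaf); subirrigation thereafter. Visual 0–100% injury at 14 d relative to untreated plants.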

[2] = test system: Key Grass and Sedge Weeds as well as Grass Crops; experiment: Post-emergent Test II herbicidal activity (Table 6); format: in vivo; details: post-emergence, 336 h; for pest or weed control at 70 g/ha: application rate 70 g ai/ha; for pest or weed control at 140 g/ha: application rate 140 g ai/ha
Method in brief: as §1

[3] = ABUTH: velvetleaf (Abutilon theophrasti), read-out: Visual Growth Reduction (%) 14 Days After Application ABUTH
[4] = AMARE: redroot pigweed (Amaranthus retroflexus), read-out: Visual Growth Reduction (%) 14 Days After Application AMARE
[5] = BRSNN: oilseed-rape, canola (Brassica napus), read-out: Visual Growth Reduction (%) 14 Days After Application BRSNN
[6] = CHEAL: lambsquarters (Chenopodium album), read-out: Visual Growth Reduction (%) 14 Days After Application CHEAL
[7] = EPHHL: wild poinsettia (Euphorbia heterophylla), read-out: Visual Growth Reduction (%) 14 Days After Application EPHHL
[8] = HELAN: sunflower (Helianthus annuus), read-out: Visual Growth Reduction (%) 14 Days After Application HELAN
[9] = VIOTR: wild pansy (Viola tricolor), read-out: Visual Growth Reduction (%) 14 Days After Application VIOTR
[10] = Triticum aestivum, TRZSS (wheat), read-out: Visual Growth Reduction (%) 14 Days After Application, TRZSS
[11] = CYPES: yellow nutsedge (Cyperus esculentus), read-out: Visual Growth Reduction (%) 14 Days After Application, CYPES
[12] = DIGSA: crabgrass (Digitaria sanguinalis), read-out: Visual Growth Reduction (%) 14 Days After Application, DIGSA
[13] = ECHCG: barnyardgrass (Echinochloa crus-galli), read-out: Visual Growth Reduction (%) 14 Days After Application, ECHCG
[14] = ORYSA: rice (Oryza sativa), read-out: Visual Growth Reduction (%) 14 Days After Application, ORYSA
[15] = SETFA: giant foxtail (Setaria faberi), read-out: Visual Growth Reduction (%) 14 Days After Application, SETFA
[16] = SORVU: grain sorghum (Sorghum vulgare), read-out: Visual Growth Reduction (%) 14 Days After Application, SORVU
[17] = ZEAMX: maize, corn (Zea mays), read-out: Visual Growth Reduction (%) 14 Days After Application, ZEAMX

COC(=O)c1nc(-c2ccc(C(N)=O)cc2)c(F)c(N)c1Cl [Compound 192]
0 to 29%: pest or weed control at 70 g/ha [1, 3] | pest or weed control at 140 g/ha [1, 3] | pest or weed control at 70 g/ha [1, 4] | pest or weed control at 140 g/ha [1, 4] | pest or weed control at 70 g/ha [1, 5] | pest or weed control at 140 g/ha [1, 5] | pest or weed control at 70 g/ha [1, 6] | pest or weed control at 140 g/ha [1, 6] | pest or weed control at 70 g/ha [1, 7] | pest or weed control at 140 g/ha [1, 7] | pest or weed control at 70 g/ha [1, 8] | pest or weed control at 140 g/ha [1, 8] | pest or weed control at 70 g/ha [1, 9] | pest or weed control at 140 g/ha [1, 9] | pest or weed control at 70 g/ha [2, 10] | pest or weed control at 140 g/ha [2, 10] | pest or weed control at 70 g/ha [2, 11] | pest or weed control at 140 g/ha [2, 11] | pest or weed control at 70 g/ha [2, 12] | pest or weed control at 140 g/ha [2, 12] | pest or weed control at 70 g/ha [2, 13] | pest or weed control at 140 g/ha [2, 13] | pest or weed control at 70 g/ha [2, 14] | pest or weed control at 140 g/ha [2, 14] | pest or weed control at 70 g/ha [2, 15] | pest or weed control at 140 g/ha [2, 15] | pest or weed control at 70 g/ha [2, 16] | pest or weed control at 140 g/ha [2, 16] | pest or weed control at 70 g/ha [2, 17] | pest or weed control at 140 g/ha [2, 17]
